Assay results published in patent US20140221490A1, “METHODS OF TREATING PAIN” (Hospira, Inc., priority 2011, published 2014).
“And” between values parts separate entries of the source, which are not always exact repeats. Identical values can stand only once.

Experiments:
[1] = system: patients after orthopedic surgery; test: Orthopedic surgery trial: safety (adverse events); type: in vivo, human
Method: The diclofenac formulation was Dyloject™. […] Adverse events (adverse effects) were recorded between surgery and randomization, not just after baseline, in order to distinguish treatment-emergent adverse events.
Those who remained at the site longer assessed their pain every 3 hours until discharged. […] Adverse events (AEs) were recorded between surgery and randomization, not just after baseline, in order to distinguish treatment-emergent AEs.

[2] = system: acute moderate to severe pain after abdominal or pelvic surgery; test: Multiple-dose randomized double-blind active- and placebo-controlled trial after abdominal or pelvic surgery: efficacy (SPID, pain relief, rescue morphine, patient global evaluation); type: in vivo, human
Method: A 331 multicenter, multiple-dose, multiple-day, randomized, double-blind, parallel-group study was conducted on patients who had undergone abdominal or pelvic surgery. Patients were randomly assigned to 18.75 mg of diclofenac, 37.5 mg of diclofenac, 30 mg ketorolac, or placebo (1:1:1:1 ratio). The diclofenac formulation was Dyloject™. The patients selected for the study had moderate to severe pain within 6 hours postoperatively, defined as pain intensity of at least 50 mm on a 0-100 VAS.
At 16 U.S. sites, adults 18-65 years old were screened if they were scheduled for abdominal or pelvic surgery within 2 weeks. Key inclusion criteria were moderate-to-severe postoperative pain, defined as intensity≧50 mm on a 0-100 mm visual analog scale (VAS) within 6 hours after surgery, and weight>50 kg. Exclusion criteria were applied to the preoperative, intraoperative, and postoperative periods. Key preoperative exclusion criteria were a history of chronic disease or severe asthma, a recent (≦6 months) cardiovascular event or clinically-significant abnormal electrocardiogram (ECG) at screening, consumption of aspirin (except <325 mg/day for antiplatelet cardiac protection), opioids, other NSAIDs, other common analgesics, major and minor tranquilizers, or antihistamines≦24 hours before study drug initiation (except if administered during surgery), consumption of a monoamine oxidase inhibitor, tryptophan, carbamazepine, or valproate≦2 weeks before baseline, any clinically-significant laboratory abnormality, and previous or present peptic ulceration, gastrointestinal (GI) bleeding, or any bleeding diathesis. In addition, long-acting NSAIDs or COX-2 inhibitors were to be discontinued 3 days before surgery. Subjects were also excluded in the event of a known allergy to diclofenac, NSAIDs, morphine, anesthetics, or any excipient of the study preparation, receipt of any other investigational medication within 3 months prior to administration of the study drug, known or suspected alcohol or drug abuse, and unwillingness to remain in the clinical research center for 2 nights or return within 5-9 days for a safety follow-up visit. Female subjects with a positive pregnancy test within 24 hours of surgery or who were lactating at screening were also excluded. Intraoperative exclusion criteria were subcostal incision during surgery and concomitant use of NSAIDs or acetaminophen (other intraoperative medications were not restricted). Subjects with abnormal postoperative baseline ECG were excluded from study participation. In addition, patient-controlled analgesia (PCA) was not permitted before or during study drug dosing. Nitrous oxide and very short-acting barbiturates or benzodiazepines were allowed, provided that there was a ≧1.5-hour washout period before study drug administration, to avoid residual effects on pain intensity assessments. […] Postoperative regional anesthesia was not allowed.
This was a multicenter, multiple-dose, multiple-day, randomized, double-blind, active- and placebo-controlled, parallel-group phase 3 study. […] Assignments were made according to a computer-generated random-number code, and clinical staff and patients were blinded to study drug assignment. The first dose of study medication (1 mL IV bolus) was received by patients in all treatment arms within this first 6-hour period (Table 4).
Administration of the first dose of study drug was taken as time 0, and all subsequent dosing and evaluation time points were in relation to time of first study drug dose. Subsequent injections were received every 6 hours until discharge or until patient withdrawal/discontinuation from the study, due either to an adverse event (AE), inadequate pain control, noncompliance with the study protocol, or at the investigator's discretion. […]

[3] = system: patients after abdominal or pelvic surgery; test: Abdominal or pelvic surgery trial: safety (adverse events, thrombophlebitis scale); type: in vivo, human
Method: Patients returned for a safety follow-up 5-9 days after baseline, and received a follow-up telephone call 30 days post-baseline. Safety assessments included physical examinations, laboratory testing, vital signs, 12-lead ECG, and evaluation of thrombophlebitis at the site of study drug injection using a 6-point scale (Table 5 and FIG. 6). AEs were recorded throughout the study.
The proportion of patients reporting ≧30% reduction from baseline in pain intensity was analyzed with the Cochran-Mantel-Haenszel test with center as a stratification variable. Time to meaningful (≧30%) reduction in pain intensity and time to administration of rescue medication were analyzed with Kaplan-Meier survival analysis techniques. Descriptive statistics were used for AEs, laboratory test results, vital signs, thrombophlebitis, and ECG results. Logistic regression was used to estimate the relative risk of cardiovascular events.

[4] = cited from earlier work
[5] = diclofenac n = 145, ketorolac n = 60

Q: For `O=C(c1ccccc1)c1ccc2n1CCC2C(=O)O` (centres unmarked) [Ketorolac, ketorolac tromethamine], which “Acute Renal Failure/Renal Insufficiency” value [1, 5] is on record?
A: 0 n (%)

Q: What about the “Acute Tubular Necrosis” value [1, 5] of the same compound?
A: 0 n (%)

Q: What about the Anemia [1, 5] of the same compound?
A: 9 (15.0%) n (%)

Q: What about the “Blood creatine phosphokinase (CPK) increase” value [1, 5] of the same compound?
A: 8 (13.3%) n (%)

Q: What about the Constipation [1, 5] of the same compound?
A: 6 (10.0%) n (%)

Q: And the Contusion [1, 5]?
A: 2 (3.3%) n (%)

Q: And the Dizziness [1, 5]?
A: 5 (8.3%) n (%)

Q: And the “Dysuria (burning, difficulty urinating)” value [1, 5]?
A: 1 (1.7%) n (%)

Q: What about the Epistaxis [1, 5] of the same compound?
A: 0 n (%)

Q: What about the Fever/increase body temp. [1, 5] of the same compound?
A: 5 (8.3%) n (%)

Q: What about the Nausea [1, 5] of the same compound?
A: 18 (30.0%) n (%)

Q: What about the “Total Bleeding related adverse events” value [1, 5] of the same compound?
A: 13 (21.7%) n (%)

Q: And the “Total GI-Related Adverse Events” value [1, 5]?
A: 24 (40.0%) n (%)

Q: And the “Total Renal-Related Adverse Events” value [1, 5]?
A: 1 (1.7%) n (%)

Q: And the “Urinary Retention” value [1, 5]?
A: 0 n (%)

Q: And the Vomiting [1, 5]?
A: 6 (10.0%) n (%)

Q: What about the “incidence of bleeding-related adverse effects” value ([1]; in vivo) of the same compound?
A: 23% and 22%

Q: And the “serious cardiovascular event: congestive heart failure” value ([1]; one of 60 patients, not considered treatment-related)?
A: 1.7%

Q: And the “Cumulative Amount of Rescue Medication, Mean (SD)” value (“Cumulative Amount … (SD)” for short) ([2]; 0 to 24 hours, 30 mg (N = 82))?
A: 6.7 (7.74) mg

Q: What about the “Opioid sparing vs. placebo” value ([2]; 0 to 24 hours, 30 mg (N = 82)) of the same compound?
A: 40%

Q: And the “Cumulative Amount … (SD)” value ([2]; 0 to 48 hours, 30 mg (N = 82))?
A: 8.5 (10.00) mg

Q: And the “Opioid sparing vs. placebo” value ([2]; 0 to 48 hours, 30 mg (N = 82))?
A: 46%

Q: And the “Cumulative Amount … (SD)” value ([2]; 0 to 72 hours, 30 mg (N = 82))?
A: 8.5 (10.04) mg

Q: And the “Opioid sparing vs. placebo” value ([2]; 0 to 72 hours, 30 mg (N = 82))?
A: 47%

Q: And the “Cumulative Amount … (SD)” value ([2]; 0 to 72 hours, 30 mg (N = 82), listed as ketorolac)?
A: 8.5 mg

Q: What about the “Sum of the Pain Intensity Differences Over 0-48 Hours, Mean” value ([2]; 30 mg (N = 82)) of the same compound?
A: 1583.2 mm·hours

Q: And the “patients with at least a 30% reduction in pain intensity” value ([2]; at 45 minutes after study drug initiation, 30 mg)?
A: 57%

Q: And the “patients with ≧30% reduction in pain intensity” value ([2]; during the first 6-hour dosing period, 30 mg)?
A: 76.8%

Q: What about the “incidence of bleeding-related AEs” value ([3]; 30 mg) of the same compound?
A: 6.1%

Q: And the “incidence of cardiovascular AEs” value ([3]; 30 mg)?
A: 6.1%

Q: And the “incidence of treatment-related AEs” value ([3]; 30 mg)?
A: 23.2%

Q: And the “Abdominal Hematoma” value ([3]; 30 mg (n = 82))?
A: 1 (1.2%) n (%)

Q: What about the “Bleeding-related AE: Anemia” value ([3]; 30 mg (n = 82)) of the same compound?
A: 2 (2.4%) n (%)

Q: What about the “Blood Creatine phosphokinase (CPK) increased” value ([3]; 30 mg (n = 82)) of the same compound?
A: 12 (14.6%) n (%)

Q: And the Constipation ([3]; 30 mg (n = 82))?
A: 8 (9.8%) n (%)

Q: And the Diarrhea ([3]; 30 mg (n = 82))?
A: 6 (7.3%) n (%)

Q: And the Flatulence ([3]; 30 mg (n = 82))?
A: 22 (26.8%) n (%)

Q: What about the Headache ([3]; 30 mg (n = 82)) of the same compound?
A: 14 (17.1%) n (%)

Q: What about the Hematoma ([3]; 30 mg (n = 82)) of the same compound?
A: 0 (0.0%) n (%)

Q: What about the Incision site complication ([3]; 30 mg (n = 82)) of the same compound?
A: 0 (0.0%) n (%)

Q: And the “Injection site pain, irritation” value ([3]; 30 mg (n = 82))?
A: 17 (20.7%) n (%)

Q: And the Insomnia ([3]; 30 mg (n = 82))?
A: 7 (8.5%) n (%)

Q: What about the Nausea ([3]; 30 mg (n = 82)) of the same compound?
A: 22 (26.8%) n (%)

Q: What about the “Number of patients experiencing ≧1 AE” value ([3]; 30 mg (n = 82)) of the same compound?
A: 72 (87.8%) n (%)

Q: What about the Pruritus ([3]; 30 mg (n = 82)) of the same compound?
A: 3 (3.7%) n (%)

Q: What about the Pyrexia ([3]; 30 mg (n = 82)) of the same compound?
A: 9 (11.0%) n (%)

Q: And the “Rectal Hemorrhage” value ([3]; 30 mg (n = 82))?
A: 1 (1.2%) n (%)

Q: And the Tachycardia ([3]; 30 mg (n = 82))?
A: 4 (4.9%) n (%)

Q: And the Thrombophlebitis ([3]; 30 mg (n = 82))?
A: 6 (7.3%) n (%)

Q: And the “Total patients with a Bleeding-Related AE” value ([3]; 30 mg (n = 82))?
A: 5 (6.1%) n (%)

Q: And the “Vaginal Hemorrhage” value ([3]; 30 mg (n = 82))?
A: 0 (0.0%) n (%)

Q: What about the Vomiting ([3]; 30 mg (n = 82)) of the same compound?
A: 7 (8.5%) n (%)

Q: What about the Wound complication ([3]; 30 mg (n = 82)) of the same compound?
A: 1 (1.2%) n (%)

Q: What about the Wound dehiscence ([3]; 30 mg (n = 82)) of the same compound?
A: 1 (1.2%) n (%)

Q: And the “Total Patients on Concomitant Anticoagulants with a Bleeding-Related AE” value ([3]; 30 mg, 49 on anticoagulants)?
A: 3 (6.1%) n (%)

Q: What about the “subjects reporting ≧1 bleeding-related AE among subjects receiving anticoagulants” value ([3]; ketorolac group (3/49), post hoc analysis) of the same compound?
A: 6.1%

Q: And the “Vd, volume of distribution” value [4]?
A: 0.21 L/kg

Q: What about the “Prot. bind., drug fraction bound to protein (fP)” value ([4]; plasma) of the same compound?
A: 99%

Q: And the Cmax ([4]; read-out: Cmax, maximum drug concentration in plasma, based on the drug's pharmacokinetics and administration of a normal drug dose)?
A: 1800 nM
